Results as given in patent US8193378B2, “2H-chromene compound and derivative thereof” (Astellas Pharma Inc., priority 2008, dated 2012).

Tests used:
human S1P1 = molecular target: T1, human S1P1 (Homo sapiens, UniProt P21453); assay: Ca2+ influx assay using human S1P1 expressing cell (Test Example 1, Method 2); format: cell-based; settings: method 2, Ca2+ influx, human S1P1 expressing CHO cell (values with *); read-out: A: EC50, in vitro S1P1 agonist action (value with *)
T1 construct: expressed in transfected cells; membrane fraction used
T1 sequence (P21453 whole entry): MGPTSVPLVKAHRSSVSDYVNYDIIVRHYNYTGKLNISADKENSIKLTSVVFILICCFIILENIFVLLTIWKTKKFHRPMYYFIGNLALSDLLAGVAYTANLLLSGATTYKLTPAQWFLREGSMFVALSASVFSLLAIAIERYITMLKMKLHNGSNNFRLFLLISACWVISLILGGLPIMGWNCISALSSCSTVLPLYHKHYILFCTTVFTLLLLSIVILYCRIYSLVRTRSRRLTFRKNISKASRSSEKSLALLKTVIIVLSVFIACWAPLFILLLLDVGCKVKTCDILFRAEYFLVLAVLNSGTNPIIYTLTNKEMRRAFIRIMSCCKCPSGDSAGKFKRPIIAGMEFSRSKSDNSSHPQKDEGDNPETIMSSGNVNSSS
Method: Evaluation of In Vitro S1P1 Receptor Agonist Activity in Biological Body
(Method 2) Method for Evaluation of Receptor Agonist Action by Ca^2+ Influx Assay Using Human S1P1 Expressing Cell
The in vitro S1P1 agonist action of the compound of the present invention was evaluated by the increase in the Ca^2+ concentration in a human S1P1 expressing cell. A cDNA encoding a human S1P1 was cloned from a human colorectal cDNA library and introduced to an expression vector pcDNA3.1 to construct a S1P1-pcDNA3.1. Then, by Lipofectamine 2000 (GIBCO), the S1P1-pcDNA3.1 was transfected into a CHO cell, and cultured in a Ham's F-12 culture medium containing 10% fetal bovine serum, 100 U/mL penicillin, 100 μg/mL streptomycin, and 1 mg/mL G418 disulfate, to obtain a stable, G418-resistant strain. The cultured human S1P1 expressing cells were isolated in a 1 mM EDTA.2Na-containing PBS and suspended in a Ham's F-12 culture medium containing 10% fetal bovine serum, 100 U/mL penicillin, and 100 μg/mL streptomycin. This cell suspension was dispensed to a 96-well plate at 50000 cells/well, and cultured at a CO2 incubator (5% CO2, 37° C.) overnight. The culture medium was replaced with a calcium-sensitive fluorescent reagent (FLIPR (registered trademark) calcium 3 assay kit, molecular device)-containing loading buffer (Hank's balance salt solution, 20 mM HEPES, 2.5 mM probenecid) and left stand at a CO2 incubator (5% CO2, 37° C.) for 1 hour. The plate was set at a Functional Drug Screening System FDSS6000 (Hamamatsu Photonics K. K.), and persistently measured 124 times every 1.02 second at an excitation wavelength of 480 nm. The test compound (final concentration 10^−12 to 10^−5 M) was added at the same time as the 12th measurement, and the change in the Ca^2+ concentration in cells was evaluated by the change in the fluorescent strength. For evaluation of the human S1P1 agonist action of the compound of the present invention and the comparative compound, the percentages with the rate of a maximum reaction to make the increase in the Ca^2+ concentration in cells saturated after the addition of the compound being set at 100% and the rate of the increase in the Ca^2+ concentration in cells by the addition of a vehicle alone being set at 0% were used, a non-linear regression curve was plotted, and a concentration to cause an agonist action operating 50% of the maximum reaction was defined as an EC50 value (nM).

[1] = test system: peripheral blood lymphocytes; assay: Reduction of number of peripheral blood lymphocytes in rat (Test Example 2); format: in vivo; settings: Lymphocyte, male Lewis rats, oral, 24 hours after administration, read-out: B: ED50 24 h, reduction of number of lymphocytes in peripheral blood
Method: Evaluation of Reduction of Number of Peripheral Blood Lymphocytes in Rat
The action on the peripheral blood lymphocytes were evaluated using rats. 6- to 10-week-old male Lewis rats (Japan Charles River Laboratories Japan, Inc.) were randomly divided into groups (n=3), and the compound of the present invention was suspended in 0.5% methyl cellulose-containing distilled water, and orally administered with a sonde. At 4 hours or 24 hours after administration, 0.2 ml of blood was collected from the ocular fundus under ether anesthesia. To the blood sample were immediately added EDTA.4K and heparin to prevent clotting, and the number of the lymphocytes in blood was measured with an automatic hematocyte analyzer (Sysmex Corp.; XT-2000i). For the reduction of the number of the lymphocytes in peripheral blood by the compound of the present invention, the percentage with the number of the lymphocytes in groups administered with 0.5% methyl cellulose-containing distilled water being set at 100%, as performed at the same time, were used, and the dose to cause 50% reduction of the number of the lymphocytes in the peripheral blood by administration of the compound of the present invention was defined as an ED50 value (mg/kg).

[2] = Infrequent pulse expression using awake rats (Test Example 5); format: in vivo, rat; settings: awake male Lewis rats, intravenous infusion for 10 minutes, 1 mg/kg administration
Method: Evaluation of Infrequent Pulse Expression Using Awake Rats Male Lewis rats were anesthetized with isoflurane inhalation and a polyethylene tube was intubated into the femoral artery and vein. It was connected to a blood pressure measuring amplifier•heart rate unit via a pressure transducer from an arterial line, and the arterial blood pressure and the heart rate were measured. Intravenous line from Vehicle (10% HCO40/tween80/PEG, 90% saline) and the present compounds were intravenously infused persistently at a rate of 1 mL/kg/min for 10 minutes. The measurement data were read (for a total evaluation time of 20 minutes) from a chart of the values before administration, at 1, 2, 5, and 10 min after the start of constant infusion, and at 1, 2, 5, and 10 min after the completion of infusion, and thus, for the heart rate and the blood pressure before administration, the decrease rates (%) before and after infusion were calculated.

Row | Compound | EC50 (human S1P1) | ED50 [1] | influence on the heart rate and the blood pressure [2] | infrequent pulse expression [2]
1 | Cl.O=C(O)[C@H]1CCCN(CC2=Cc3c(F)cc(OCc4ccc(OC(CF)CF)c(C(F)(F)F)c4)cc3OC2)C1 [Ex 230] | 7 nM | 0.19 mg/kg | does not have an influence | not expressed
2 | Cl.O=C(O)[C@@H]1CCCN(CC2=Cc3c(F)cc(OCc4ccc(OC(CF)CF)c(Cl)c4)cc3OC2)C1 [Ex 223] | 1.1 nM | 0.32 mg/kg | – | –
3 | Cl.O=C(O)[C@@H]1CCCN(CC2=Cc3ccc(OCc4ccc(OCC(F)(F)F)c(C(F)(F)F)c4)cc3OC2)C1 [Ex 160] | 2.2 nM | 0.26 mg/kg | – | –
